ChEMBL document CHEMBL1641565, “Discovery and optimisation of a selective non-steroidal glucocorticoid receptor antagonist” (Bioorg Med Chem Lett, 2011)
≈ marks a conversion by molar mass, not a printed value.

Columns and labels:
Progesterone receptor = molecular target: T1, Progesterone receptor (Homo sapiens, UniProt P06401); assay: Binding affinity to human recombinant PR by competition ligand binding fluorescence polarization assay
T1 sequence (P06401 whole entry): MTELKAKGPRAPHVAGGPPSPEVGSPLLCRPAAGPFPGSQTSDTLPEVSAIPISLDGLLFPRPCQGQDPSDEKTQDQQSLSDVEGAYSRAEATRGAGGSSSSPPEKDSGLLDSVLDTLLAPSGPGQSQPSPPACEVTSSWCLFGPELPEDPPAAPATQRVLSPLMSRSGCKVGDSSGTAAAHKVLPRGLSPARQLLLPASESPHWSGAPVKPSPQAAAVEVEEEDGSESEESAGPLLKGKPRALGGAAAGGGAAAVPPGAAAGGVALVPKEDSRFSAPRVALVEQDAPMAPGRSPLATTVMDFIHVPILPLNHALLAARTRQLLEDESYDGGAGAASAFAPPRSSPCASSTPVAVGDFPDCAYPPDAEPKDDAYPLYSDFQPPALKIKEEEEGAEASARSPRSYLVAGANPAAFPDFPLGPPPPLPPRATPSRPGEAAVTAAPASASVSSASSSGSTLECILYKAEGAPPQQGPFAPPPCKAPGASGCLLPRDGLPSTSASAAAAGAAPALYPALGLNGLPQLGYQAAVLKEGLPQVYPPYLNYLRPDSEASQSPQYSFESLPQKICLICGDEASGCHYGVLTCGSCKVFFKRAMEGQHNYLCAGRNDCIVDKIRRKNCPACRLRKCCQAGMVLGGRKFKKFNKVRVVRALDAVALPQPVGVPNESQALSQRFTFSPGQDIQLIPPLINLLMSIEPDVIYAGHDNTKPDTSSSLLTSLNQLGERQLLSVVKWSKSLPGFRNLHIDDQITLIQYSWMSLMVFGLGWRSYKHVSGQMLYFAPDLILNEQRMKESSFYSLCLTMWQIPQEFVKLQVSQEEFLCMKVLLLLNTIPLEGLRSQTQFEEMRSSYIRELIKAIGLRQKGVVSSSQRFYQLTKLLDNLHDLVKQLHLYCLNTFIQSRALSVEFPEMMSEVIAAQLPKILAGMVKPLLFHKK

Glucocorticoid receptor [1] = molecular target: T2, Glucocorticoid receptor (Homo sapiens, UniProt P04150); assay: Binding affinity to human recombinant GR by competition ligand binding fluorescence polarization assay
T2 sequence (P04150 whole entry): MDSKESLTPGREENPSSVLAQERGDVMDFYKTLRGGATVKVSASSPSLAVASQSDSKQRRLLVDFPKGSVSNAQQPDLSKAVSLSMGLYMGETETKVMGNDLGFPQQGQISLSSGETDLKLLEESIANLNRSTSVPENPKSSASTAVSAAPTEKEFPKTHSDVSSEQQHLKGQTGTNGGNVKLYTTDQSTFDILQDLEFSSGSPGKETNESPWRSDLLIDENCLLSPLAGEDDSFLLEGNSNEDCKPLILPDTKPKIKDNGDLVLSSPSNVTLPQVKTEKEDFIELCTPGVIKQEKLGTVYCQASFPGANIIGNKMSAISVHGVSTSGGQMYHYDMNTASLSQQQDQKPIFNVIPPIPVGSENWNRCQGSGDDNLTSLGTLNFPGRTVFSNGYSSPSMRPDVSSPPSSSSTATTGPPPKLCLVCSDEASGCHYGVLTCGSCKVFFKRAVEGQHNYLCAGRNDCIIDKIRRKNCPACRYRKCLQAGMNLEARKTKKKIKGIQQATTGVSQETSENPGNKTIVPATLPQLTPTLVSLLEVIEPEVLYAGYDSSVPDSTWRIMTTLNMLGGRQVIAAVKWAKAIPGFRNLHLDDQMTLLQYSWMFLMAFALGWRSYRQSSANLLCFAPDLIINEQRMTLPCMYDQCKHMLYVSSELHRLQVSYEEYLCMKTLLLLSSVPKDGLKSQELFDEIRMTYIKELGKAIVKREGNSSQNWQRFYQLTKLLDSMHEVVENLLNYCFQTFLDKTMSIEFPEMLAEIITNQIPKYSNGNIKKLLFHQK

[2] = Intrinsic clearance in human liver microsomes measured per mg of protein; assay type: ADME, Microsome
Glucocorticoid receptor [3] = molecular target: T2, Glucocorticoid receptor; assay: Antagonist activity at human GR […] domain transfected in CHO cells co-transfected with MMTV-luciferase gene assessed as inhibition of cortisol-induced luciferase activity; assay type: cell-based
[4] = Volume of distribution at steady state in Wistar rat at 2 mg/kg, iv; 10 mg/kg, po; assay type: ADME, organism-based; settings: in vivo, read-out: Vdss
[5] = molecular target: T3, Mineralocorticoid receptor (Homo sapiens, UniProt P08235); assay: Antagonist activity at human MR ligand binding domain transfected in CHO cells co-transfected with MMTV-luciferase gene assessed as inhibition of cortisol-induced luciferase activity; assay type: cell-based
T3 sequence (P08235 whole entry): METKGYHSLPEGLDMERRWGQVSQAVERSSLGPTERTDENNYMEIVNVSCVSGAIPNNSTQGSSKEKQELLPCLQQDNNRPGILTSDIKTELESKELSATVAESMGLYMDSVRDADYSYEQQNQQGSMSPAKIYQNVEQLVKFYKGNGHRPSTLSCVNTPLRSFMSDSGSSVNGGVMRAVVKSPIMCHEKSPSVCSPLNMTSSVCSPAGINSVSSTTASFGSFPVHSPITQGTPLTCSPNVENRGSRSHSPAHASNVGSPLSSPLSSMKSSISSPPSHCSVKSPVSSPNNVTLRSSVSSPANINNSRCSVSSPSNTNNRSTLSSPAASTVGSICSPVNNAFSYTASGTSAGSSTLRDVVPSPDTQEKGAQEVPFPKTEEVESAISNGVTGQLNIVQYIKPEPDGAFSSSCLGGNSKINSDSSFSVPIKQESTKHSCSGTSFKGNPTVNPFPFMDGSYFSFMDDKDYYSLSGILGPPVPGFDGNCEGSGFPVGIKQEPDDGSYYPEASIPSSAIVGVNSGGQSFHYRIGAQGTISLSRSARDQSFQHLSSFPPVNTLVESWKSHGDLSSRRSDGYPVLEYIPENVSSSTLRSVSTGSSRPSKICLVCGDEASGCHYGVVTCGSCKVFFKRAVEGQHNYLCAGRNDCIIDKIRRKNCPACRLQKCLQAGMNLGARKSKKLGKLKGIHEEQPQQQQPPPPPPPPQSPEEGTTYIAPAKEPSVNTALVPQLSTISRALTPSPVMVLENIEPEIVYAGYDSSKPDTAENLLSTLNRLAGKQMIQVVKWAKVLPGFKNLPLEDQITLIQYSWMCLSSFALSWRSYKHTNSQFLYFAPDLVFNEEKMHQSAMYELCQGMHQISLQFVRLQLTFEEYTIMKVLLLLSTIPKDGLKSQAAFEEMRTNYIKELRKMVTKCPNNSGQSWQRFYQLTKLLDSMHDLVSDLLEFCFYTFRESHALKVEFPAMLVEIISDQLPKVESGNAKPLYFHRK

[6] = Solubility of the compound in PBS at pH 7.4; assay type: physicochemical
[7] = Intrinsic clearance in rat liver microsomes measured per mg of protein; assay type: ADME, Microsome
[8] = Plasma clearance in Wistar rat at 2 mg/kg, iv; 10 mg/kg, po; assay type: ADME, organism-based
[9] = Oral bioavailability in Wistar rat at 10 mg/kg; assay type: ADME, organism-based; settings: in vivo

SMILES	EC50 (Progesterone receptor) [µM]	EC50 (Glucocorticoid receptor [1]) [µM]	further results
COc1ccc(F)cc1-c1ccc([C@@H](C)NS(=O)(=O)c2c(C)noc2C)cc1	0.2	0.00501	–
Cc1noc(C)c1-c1ccc(CNS(=O)(=O)c2c(C)noc2C)cc1	0.00794	0.00398	–
Cc1noc(C)c1S(=O)(=O)NCc1ccc(-c2ccccc2)cc1	> 10	1	–
COc1ccccc1-c1ccc(CNS(=O)(=O)c2c(C)noc2C)cc1	0.2	0.0316	–
COc1ccc(F)cc1-c1ccc(CNS(=O)(=O)c2c(C)noc2C)cc1	0.126	0.0126	–
COc1ccc(F)cc1-c1ccc(CNS(=O)(=O)c2cc(Cl)ccc2Cl)cc1	0.0501	0.002	–
COc1ccc(F)cc1-c1ccc([C@H](C)NS(=O)(=O)c2c(C)noc2C)cc1	0.251	0.0251	–
COc1ncccc1-c1ccc([C@@H](C)NS(=O)(=O)c2c(C)noc2C)cc1	0.794	0.0251	–
Cc1noc(C)c1S(=O)(=O)N[C@H](C)c1ccc(-c2cccnc2OC(F)F)cc1	0.631	0.01	microsomal CLint [2]: > 270 µL/min/mg
COc1ncc(C#N)cc1-c1ccc([C@@H](C)NS(=O)(=O)c2c(C)noc2C)cc1	0.0794	0.00631	–
COc1ccc(F)cc1-c1ccc([C@@H](C)NS(=O)(=O)c2cn(C)nc2C(F)(F)F)cc1	0.794	0.00398	–
COc1ncccc1-c1ccc([C@@H](C)NS(=O)(=O)c2cn(C)nc2C(F)(F)F)cc1	> 10	0.0126	–
COc1ncc(C#N)cc1-c1ccc([C@@H](C)NS(=O)(=O)c2cn(C)nc2C(F)(F)F)cc1	> 10	0.0126	EC50 (Glucocorticoid receptor [3]): 0.1 µM; microsomal CLint [2]: < 12 µL/min/mg; Vd [4]: 0.7 L/kg; EC50 [5]: > 10 µM; solubility [6]: 0.0289 mg/mL (≈ 62.1 µM); microsomal CLint [7]: < 12 µL/min/mg; clearance [8]: 0.588 L/h/kg; bioavailability [9]: 42%
